Experimental data reported in patent EP1206474B1, “SULFONYLPHENYLPYRAZOLE COMPOUNDS USEFUL AS COX-2 INHIBITORS” (ABBOTT LABORATORIES, priority 1999, dated 2001).
Blank lines part the entries; values can stand above or below the molecule they belong to.

Experiments:
[1] = tested on: Human amnionic WISH cells; assay: IL-1β induced PGE2 production in WISH cells; format: cell-based; conditions: IL-1β induced PGE2, 18 hour incubation; for inhibition at 1 µM: at 1000 nM; for IC50: parenthetical value, read-out: WISH (parenthetical value, IC50 by analogy with Table 1)
Description: (§1) EIA reagents for prostaglandin determination were purchased from Perseptive Diagnostics, (Cambridge, MA). Prostaglandin E2 (PGE2) levels in lavage fluids were determined after the samples were dried under nitrogen and reconstituted with assay buffer. PGE2 levels in enzyme assays or cell culture media were measured against standards prepared in the same milieu. The immunoassays were conducted as recommended by the manufacturer. The EIA was conducted in 96 well microtiter plates (Nunc Roskilde, Denmark) and optical density was measured using a microplate reader (Vmax, Molecular Devices Corp., Menlo Park, CA).
Human amnionic WISH cells were grown to 80% confluence in 48 well plates. Following removal of the growth medium and two washings with Gey's Balanced Salt Solution, 5 ng IL-1β/ml (UBI, Lake Placid, NY) was added to the cells with or without test compound in DMSO (0.01% v/v) in Neuman-Tytell Serumless Medium (GIBCO, Grand Island, NY). Following an 18 hour incubation to allow for the maximal induction of PGHS-2, the conditioned medium was removed and assayed for PGE2 content by EIA analysis as described above.
WISH cell values indicate percent inhibition at the particular nanomolar dose level.

[2] = biological target: T1, recombinant human Cox-1 (r-hu Cox-1) (Homo sapiens, UniProt P23219); assay: Recombinant human PGHS-1 (r-hu Cox-1) enzyme assay, PGE2 by EIA; format: biochemical; conditions: read-out: r-hu COX1 percent inhibition
T1 construct: made in house; host or cells: baculovirus/Sf9 insect cells (microsomes)
T1 sequence (P23219 24-599): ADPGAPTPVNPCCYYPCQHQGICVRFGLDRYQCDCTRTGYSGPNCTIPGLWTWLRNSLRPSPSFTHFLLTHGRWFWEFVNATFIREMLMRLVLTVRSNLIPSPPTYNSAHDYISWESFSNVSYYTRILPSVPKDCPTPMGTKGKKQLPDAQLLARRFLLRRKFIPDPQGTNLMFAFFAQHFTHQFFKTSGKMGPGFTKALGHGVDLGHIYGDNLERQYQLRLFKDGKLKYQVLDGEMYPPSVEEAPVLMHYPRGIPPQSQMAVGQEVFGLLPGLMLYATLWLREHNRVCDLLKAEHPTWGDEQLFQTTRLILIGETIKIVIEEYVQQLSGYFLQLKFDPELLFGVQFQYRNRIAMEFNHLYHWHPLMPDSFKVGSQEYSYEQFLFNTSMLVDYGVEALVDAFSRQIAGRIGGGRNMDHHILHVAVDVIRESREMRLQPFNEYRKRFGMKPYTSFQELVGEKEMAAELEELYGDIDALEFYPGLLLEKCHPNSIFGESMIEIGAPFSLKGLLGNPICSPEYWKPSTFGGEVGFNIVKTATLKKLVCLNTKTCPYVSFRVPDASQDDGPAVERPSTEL
Description: (§2) To compare the mean responses of the treatment groups, analysis of variance was applied. Percent inhibition values were determined by comparing the individual treatment mean values to the mean of the control group. Linear regression was used to estimate IC50's/ED50's in appropriate assays.
as §1
(§3) Inhibition of prostaglandin biosynthesis in vitro was evaluated using recombinant human Cox-1 (r-hu Cox-1) and Cox-2 (r-hu Cox-2) enzyme assays. […] The reaction was allowed to run for 2.5 minutes at room temperature prior to quenching with HCl and neutralization with NaOH. PGE2 production in the presence and absence of the drug was determined by EIA analysis. The EIA was conducted in 96 well microtiter plates (Nunc Roskilde, Denmark) and optical density was measured using a microplate reader (Vmax, Molecular Devices Corp., Menlo Park, CA). EIA reagents for prostaglandin determination were purchased from Perseptive Diagnostics (Cambridge, MA). PGE2 levels were measured against standards prepared in the same milieu. The immunoassays were conducted as recommended by the manufacturer. The compounds are designated by the Example Number. […] Values for Cox-2 inhibition that are parenthetical indicate IC50 values.

[3] = biological target: T2, recombinant human Cox-2 (r-hu Cox-2) (Homo sapiens, UniProt P35354); assay: Recombinant human PGHS-2 (r-hu Cox-2) enzyme assay, PGE2 by EIA; format: biochemical; conditions: for IC50: parenthetical values indicate IC50, read-out: r-hu COX2 IC50 (parenthetical values); for inhibition at 10 µM: at 10000 nM; for inhibition at 10 µM / inhibition at 0.1 µM: read-out: r-hu COX2 percent inhibition; for inhibition at 0.1 µM: at 100 nM
T2 construct: made in house; host or cells: baculovirus/Sf9 insect cells (microsomes)
T2 sequence (P35354 18-604): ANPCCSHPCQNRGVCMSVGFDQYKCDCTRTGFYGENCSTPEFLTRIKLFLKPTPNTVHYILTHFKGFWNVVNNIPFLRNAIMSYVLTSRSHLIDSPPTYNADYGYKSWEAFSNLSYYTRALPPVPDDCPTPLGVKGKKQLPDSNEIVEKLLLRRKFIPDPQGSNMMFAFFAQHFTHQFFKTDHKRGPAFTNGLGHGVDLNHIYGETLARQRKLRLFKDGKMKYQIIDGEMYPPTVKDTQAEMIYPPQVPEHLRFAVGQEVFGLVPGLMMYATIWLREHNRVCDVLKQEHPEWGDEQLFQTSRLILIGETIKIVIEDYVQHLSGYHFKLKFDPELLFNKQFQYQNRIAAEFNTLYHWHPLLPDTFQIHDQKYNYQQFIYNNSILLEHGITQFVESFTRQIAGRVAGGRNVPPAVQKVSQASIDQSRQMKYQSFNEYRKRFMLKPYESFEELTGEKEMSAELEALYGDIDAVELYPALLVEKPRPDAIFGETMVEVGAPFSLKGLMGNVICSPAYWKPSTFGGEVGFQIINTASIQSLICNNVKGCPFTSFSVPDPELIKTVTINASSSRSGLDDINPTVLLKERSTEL
Description: as §2, §1, §3

[4] = tested on: male adrenalectomized Sprague-Dawley rats; assay: Rat carrageenan pleural inflammation (CIP) model; format: in vivo; conditions: 10 milligrams per kilogram body weight, oral, 30 minutes prior to carrageenan; lavage four hours later; inhibition of prostaglandin biosynthesis
Description: For oral administration, test compounds were suspended on the day of use in 100% polyethyleneglycol (PEG 400) with a motorized homogenizer equipped with a Teflon-coated pestle (TRI-R Instrument, Jamaica, NY).
as §2, §1
Pleural inflammation was induced in male adrenalectomized Sprague-Dawley rats following the method of Vinegar et al., Fed. Proc. 1976, 35, 2447-2456. […] Eicosanoids were determined by EIA as described above. […]

[5] = Homo sapiens, read-out: WISH percent inhibition

- inhibition at 100 µM [2]: 12%
- inhibition at 10 µM [3]: 62%
Structure (SMILES): CS(=O)(=O)c1ccc(-c2nn3c(c2-c2ccc(F)cc2)OCC=CC3)cc1 [Example 4, 3-(4-Fluorophenyl)-2-(4-methylsulponylphenyl) -5,8-dihydropyrazolo[5,1-b][1,3]oxazepine]

- inhibition at 100 µM [2]: 23%
- inhibition at 0.1 µM [3]: 86%
Structure (SMILES): CS(=O)(=O)c1ccc(-c2nn3c4c(oc3c2-c2ccc(F)cc2)CCCC4)cc1 [Example 42, 3-(4-Fluorophenyl)-2-(4-(methylsulphonyl)phenyl)-5,6,7,8-tetrahydropyrazolo[5,1-b][1,3]benzoxazole]
- WISH percent inhibition ([1]; at 0.01 (nM)): 37%
- WISH percent inhibition ([1]; at 0.1 (nM)): 81%

- IC50 ([1]; Homo sapiens): 0.2 nM
Structure (SMILES): Cc1c(C#N)oc2c(-c3ccc(F)cc3)c(-c3ccc(S(C)(=O)=O)cc3)nn12 [Example 54, 2-Cyano-7-(4-fluorophenyl)-3-methyl-6-(4-(methylsulphonyl)phenyl)pyrazolo[5,1-b][1,3]oxazole]

- inhibition at 100 µM [2]: 96%
- inhibition at 0.1 µM [3]: 51%
Structure (SMILES): Cc1c(C#N)oc2c(-c3ccc(F)cc3)c(-c3ccc(S(N)(=O)=O)cc3)nn12 [Example 59, 6-(4-(Aminosulphonyl)phenyl)-2-cyano-7-(4-Fluorophenyl)-3-methyl-pyrazolo[5,1-b][1,3]oxazole]

- inhibition at 100 µM [2]: 23%
- inhibition at 0.1 µM [3]: 94%
Structure (SMILES): CCc1coc2c(-c3ccc(F)cc3)c(-c3ccc(S(C)(=O)=O)cc3)nn12 [Example 61, 3-Ethyl-7-(4-fluorophenyl)-6-(4-(methylsulphonyl)phenyl)pyrazolo[5,1-b][1,3]oxazole]

- IC50 ([1]; Homo sapiens): 0.21 nM
- inhibition at 100 µM [2]: 91%
- IC50 [3]: 2 nM
Structure (SMILES): CCc1coc2c(-c3ccc(F)cc3)c(-c3ccc(S(N)(=O)=O)cc3)nn12 [Example 62, 6-(4-(aminosulphonyl)phenyl)-3-Ethyl-7-(4-fluorophenyl)pyrazolo[5,1-b][1,3]oxazole]

Continued, molecule first:

Structure (SMILES): CS(=O)(=O)c1ccc(-c2nn3c(c2-c2ccc(F)cc2)OCCC3)cc1 [Example 1, 3-(4-Fluorophenyl)-2-(4-(methylsulphonyl)phenyl)-6,7-dihydro-5H-pyrazolo[5,1-b][1,3]oxazine]
- inhibition at 1 µM [1, 5]: 19%
- inhibition at 100 µM [2]: 4%
- IC50 [3]: 720 nM

Structure (SMILES): CS(=O)(=O)c1ccc(-c2nn3c(c2-c2ccc(F)cc2)OCCCC3)cc1 [Example 2, 3-(4-Fluorophenyl)-2-(4-(methylsulphonyl)phenyl)-5,6,7,8-tetrahydropyrazolo[5,1-b][1,3]oxazepine]
- inhibition at 100 µM [2]: 9%
- inhibition at 10 µM [3]: 57%

Structure (SMILES): CS(=O)(=O)c1ccc(-c2nn3c(c2-c2ccc(F)cc2)OCc2ccccc2C3)cc1 [Example 3]
- inhibition at 0.01 µM ([1]; Homo sapiens, at 10 nM, read-out: WISH percent inhibition): 43%
- CIP Inh @10mpk [4]: 3%
- inhibition at 100 µM [2]: 20%
- IC50 [3]: 90 nM

Structure (SMILES): CS(=O)(=O)c1ccc(-c2nn3c(c2-c2ccc(F)cc2)OCC3)cc1 [Example 5, 7-(4-Fluorophenyl)-6-(4-(methylsulphonyl)phenyl)-2,3-dihydropyrazolo[5,1-b][1,3]oxazole]
- inhibition at 1 µM [1, 5]: 33%

Structure (SMILES): CS(=O)(=O)c1ccc(-c2nn3c(c2-c2ccc(F)cc2)OCc2ccccc2-3)cc1 [Example 6, 3-(4-Fluorophenyl)-2-(4-(methylsulphonyl)phenyl)-5H-pyrazolo[1,5-b][1,3]-benzoxazine]
- inhibition at 100 µM [2]: 25%
- inhibition at 0.1 µM [3]: 82%

Structure (SMILES): CS(=O)(=O)c1ccc(-c2nn3c(-c4ccccc4)coc3c2-c2ccc(F)cc2)cc1 [Example 37, 7-(4-Fluorophenyl)-6-(4-(methylsulphonyl)phenyl)-3-phenylpyrazolo[5,1-b][1,3]oxazole]
- CIP Inh @10mpk [4]: 0%

Structure (SMILES): CS(=O)(=O)c1ccc(-c2nn3c(C4C5CC6CC(C5)CC4C6)coc3c2-c2ccc(F)cc2)cc1 (stereo not shown) [Example 39, 3-(2-Adamantyl)-7-(4-fluorophenyl)-6-(4-(methylsulphonyl)phenyl)pyrazolo[5,1-b][1,3]oxazole]
- WISH percent inhibition ([1]; at 0.1 (nM)): 38%
- WISH percent inhibition ([1]; at 1 (nM)): 95%

Structure (SMILES): Cc1oc2c(-c3ccc(F)cc3)c(-c3ccc(S(C)(=O)=O)cc3)nn2c1-c1ccccc1 [Example 41, 7-(4-Fluorophenyl)-2-methyl-6-(4-(methylsulphonyl)phenyl)-3-phenylpyrazolo[5,1-b][1,3]oxazole]
- WISH percent inhibition ([1]; at 0.1 (nM)): 33%
- WISH percent inhibition ([1]; at 1 (nM)): 52%

Structure (SMILES): CC(C)(C)c1coc2c(-c3ccc(F)cc3)c(-c3ccc(S(N)(=O)=O)cc3)nn12 [Example 55]
- inhibition at 10 µM ([2]; at 10 µM): 99%
- inhibition at 0.1 µM [3]: 88%

Structure (SMILES): CC=CC(=O)c1oc2c(-c3ccc(F)cc3)c(-c3ccc(S(C)(=O)=O)cc3)nn2c1C [Example 58, 1-[7-(4-Fluorophenyl)-3-methyl-6-(4-(methylsulphonyl)phenyl)pyrazolo[5,1-b][1,3]oxazol-2-yl]but-2-en-1-one]
- WISH percent inhibition ([1]; at 0.1 (nM)): 84 @ 0.1%
